From US20090176817A1, “Method of Treatment of Diarrhea-Predominant Irritable Bowel Syndrome in a Subject” (priority 2005, published 2009)

Columns and labels:
CYP1A2 = CYP1A2 (Homo sapiens, UniProt P05177); test: biochemical
[1] = tested on: diarrhea-predominant IBS subjects; test: Study S241.3.009: interruption of activities assessment; assay type: in vivo, human; conditions: for Percentage of Subjects Who Worsened from Baseline: Interruption of Activities: S241.3.009, 2 mg TID, observed value
Text: Studies S24 1.3.OO6, S24 1.3.0 1 1, and S24 1.3.009 used the following efficacy measurements: • The subjects answered the following three questions with “yes” or “no” using a phone diary at the end of each week: • a) During the last week, did you experience adequate relief of your IBS symptoms, such as abdominal pain, abdominal discomfort, abnormal bowel habits? • b) During the last week, did you experience adequate relief of your abdominal pain and/or discomfort? • c) During the last week, did you experience adequate relief of your abnormal bowel habits? • The subjects rated the following symptoms using the phone diary at the end of each day: • abdominal pain/discomfort (five-point scale); • stool consistency (seven-point Bristol Stool Scale); • stool frequency (number of bowel movements each day); • urgency (five-point scale); • straining (yes or no); • feeling of incomplete defecation (yes or no); • bloating or feeling of abdominal distension (five-point scale). • In Studies S241 A006 and S241.3.009, subjects completed the IBS-QOL Survey at Baseline (Day 1) and at the end of treatment. In Study S24 1.3.0 1 1, subjects completed the IBS-QOL Survey at Baseline (Day 1), at the end of the three-month treatment period, and at the end of rerandomized treatment.
Other secondary efficacy parameters for all three studies included: • Responder rate for the weekly diary questions on adequate relief at each month, where a responder for a month (monthly responder) was defined as a subject who answered the weekly question with “yes” at least twice for that month. The responder rate was the percentage of responders within a treatment group. The all-month responder rate for the weekly diary questions on adequate relief was also evaluated, where an all-month responder was defined as a subject who answered the weekly question with “yes” at least twice for each month. The all-month responder rate was the percentage of all-month responders within a treatment group; • Adequate relief rate for the weekly diary questions was calculated for each subject as the number of weekly assessments with adequate relief (“yes”) divided by the total number of weekly assessments; • Percentage of subjects with adequate relief for the weekly diary questions at each week; • Daily diary questions regarding abdominal pain/discomfort (five-point scale), stool consistency (seven-point scale), stool frequency (number of bowel movements each day), straining (yes or no), urgency (five-point scale), feeling of incomplete evacuation (yes or no), and bloating or feeling of abdominal distention (five-point scale); • QOL data assessed by the IBS-QOL questionnaire; and • Question to determine the interruption of activities.

[2] = both, human, in vivo
Procedure: In a single-dose, crossover study conducted to evaluate the potential for a drug-drug interaction between liquid Maalox and cilansetron, 12 male and 12-female subjects (aged 19-39 years) received single doses of cilansetron 16 mg alone and cilansetron 16 mg+Maalox in a crossover fashion under fasted conditions. Blood samples for measurement of plasma cilansetron pharmacokinetics were collected up to 24 hours postdose following each treatment.
The effect of concomitantly administered antacid (liquid Maalox) on the pharmacokinetics of cilansetron has been evaluated in a single-dose, crossover study in 24 healthy, male and female subjects, aged 19 to 39 years. Subjects received the following two treatments during each of the study periods in a crossover fashion: a single oral dose of cilansetron 16 mg tablet (reference treatment); a single oral dose of cilansetron 16 mg tablet+20 mL oral Maalox liquid administered every 4 hours (test treatment; 4 doses of Maalox in total; cilansetron was administered 5 minutes after the first dose of Maalox). Both cilansetron treatments were administered under fasted conditions.

in vitro = in vitro ADME; conditions: human, plasma
Procedure: Protein binding was also evaluated in an in vitro study in human, mouse, rat, and dog plasma using equilibrium dialysis (12-14K molecular weight cut-off membrane). This study measured the binding of (^14C)-cilansetron in plasma at nominal concentrations (30, 90, and 300 ng/mL) which are much higher than those encountered in vivo in humans. This study also measured the binding of (^14C)-cilansetron to purified human serum albumin at cilansetron concentrations ranging from 30-3000 ng/mL and to purified human alpha-1 acid glycoprotein (AAG) at concentrations ranging from 30-10000 ng/mL.

[3] = tested on: non-constipated IBS patients; test: clinical; assay type: in vivo, human; conditions: linear regression
Procedure: (§1) Various covariates were screened during development of the population pharmacokinetic model, including age, height, weight, body surface area, body mass index, race, gender, smoking status, serum creatinine levels, serum creatinine clearance, total bilirubin levels, cilansetron dose, and concomitant medication usage. Some efficacy and safety parameters were also evaluated in this population analysis using correlation analyses. Efficacy parameters evaluated included overall relief of IBS symptoms (Responder or Non-Responder), intensity of abdominal pain, number of stools and stool consistency, symptoms of abdominal and rectal discomfort (straining, urgency, feeling of incomplete defecation, passage of mucus, bloating, and feeling of abdominal distension), and upper GI symptoms at Visit 5 (vomiting, heartburn, early satiety, postprandial fullness, sensation of prolonged digestion, and nausea). Safety parameters evaluated included the top ten most frequently observed adverse events (constipation, flatulence, nausea, abdominal pain, headache, dyspepsia, infection, gastrointestinal disorders, anorexia, and diarrhea).
(§2) A statistically significant negative correlation was found between exposure (AUC and Cmax at steady state) and some efficacy parameters including change in stool consistency (adjusted for baseline) and the experience of straining. Patients with higher exposure to cilansetron and/or its 4-hydroxy metabolites were more likely to have lower stool consistency scores (a tendency for harder stools) than patients with lower exposure. […] In addition, patients with higher exposure to cilansetron were more likely to experience straining.

clinical = assay type: in vivo, human; conditions: both sexes, human, in vivo
Procedure: as §1, §2

healthy subjects = test: Study K.241.5009: esophageal visceral perception; assay type: in vivo, human; conditions: mean (SD); for Pressure first producing esophageal pain / Pressure first producing esophageal sensation / Volume first producing esophageal pain / Volume first producing esophageal sensation: absolute value; for Pressure first producing esophageal pain, Differences from Placebo / Pressure first producing esophageal sensation, Differences from Placebo / Volume first producing esophageal pain, Differences from Placebo / Volume first producing esophageal sensation, Differences from Placebo: not significant
Procedure: The effect of cilansetron on esophageal visceral perception was evaluated in a randomized, double-blind, placebo-controlled, 3-way crossover study in 12 male healthy subjects (ITT population), aged 32-62 years. Subjects received placebo, cilansetron 4 mg, or cilansetron 8 mg administered orally TID for 7 days during each of the 3 periods, with a 7-day washout between periods. Esophageal distension tests were done one hour after administration of the second dose on Day 7 of each treatment. A manually inflated intraesophageal balloon was used to produce distensions (successive 1 mL increases, up to a sensation of […] pain or a maximum balloon volume of 20 mL). The primary efficacy parameter was the distension volume inducing esophageal pain. Secondary parameters were the distension volumes and pressures leading to first esophageal sensation. The pain threshold and other secondary parameters for each of the cilansetron doses was compared to placebo using a one-sided Dunnett t-test.

CYP1A2, sequence (P05177 whole entry): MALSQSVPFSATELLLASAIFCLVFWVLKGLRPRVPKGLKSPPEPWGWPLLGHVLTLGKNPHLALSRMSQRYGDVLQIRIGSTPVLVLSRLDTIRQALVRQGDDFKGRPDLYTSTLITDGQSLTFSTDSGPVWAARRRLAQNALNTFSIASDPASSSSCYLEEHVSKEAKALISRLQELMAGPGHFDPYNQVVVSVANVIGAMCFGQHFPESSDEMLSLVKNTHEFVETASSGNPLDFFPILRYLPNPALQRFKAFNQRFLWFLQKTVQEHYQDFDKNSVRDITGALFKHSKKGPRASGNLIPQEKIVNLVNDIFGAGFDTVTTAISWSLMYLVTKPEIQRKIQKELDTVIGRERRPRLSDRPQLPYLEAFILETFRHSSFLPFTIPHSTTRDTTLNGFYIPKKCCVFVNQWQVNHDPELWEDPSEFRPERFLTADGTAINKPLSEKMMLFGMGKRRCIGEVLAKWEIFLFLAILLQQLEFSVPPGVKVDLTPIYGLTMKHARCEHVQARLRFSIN

## Cc1nccn1C[C@H]1CCc2c(c3cccc4c3n2CCC4)C1=O [Cilansetron, (R)-(−)-4,5,6,8,9,10-hexahydro-10-[(2-methyl-1H-imidazol-1-yl)methyl]-11H-pyrido-[3,2,1-jk]-carbazol-11-one]
CYP1A2
  IC50: 60 µM
[1]; Endpoint
  Subjects “not at all or rarely” bothered by IBS symptoms: 54%
[1]; Month 1
  Subjects worsened from Baseline, interruption of activities: 5%
  Percentage of Subjects Who Worsened from Baseline: Interruption of Activities: 5%
[1]; Month 3
  Percentage of Subjects Who Worsened from Baseline: Interruption of Activities: 3%
[1]; Month 6
  Percentage of Subjects Who Worsened from Baseline: Interruption of Activities: 2%
[2]
  AUC (0-inf) Ratio (Treatment B/A): 100%
  AUC (0-last) Ratio (Treatment B/A): 100%
  Cmax Ratio (Treatment B/A): 87%
[2]; 16 mg
  AUC and Cmax lower in males than in females: 56%
  Mean Cmax decrease with Maalox: 13%
  Mean half-life lower in males than in females: 41%
In vitro
  fraction unbound: 0.042
[3]
  Decrease in stool consistency score per 600 ng*h/mL AUC or 100 ng/mL Cmax: 0.5 point
clinical
  AUC: 360 ng·h/mL
  Cmax: 65 ng/mL
Healthy subjects; 4 mg TID oral 7 days
  Pressure first producing esophageal pain: 42.3 (11.3) mmHg
  Pressure first producing esophageal sensation: 27.4 (9.6) mmHg
  Volume first producing esophageal pain: 14.6 (4.3) mL
  Volume first producing esophageal sensation: 5.3 (3.5) mL
  Pressure first producing esophageal pain, Differences from Placebo: 3.0 (24.0) mmHg
  Pressure first producing esophageal sensation, Differences from Placebo: −2.5 (16.4) mmHg
  Volume first producing esophageal pain, Differences from Placebo: 1.4 (4.9) mL
  Volume first producing esophageal sensation, Differences from Placebo: −0.3 (4.8) mL
Healthy subjects; 8 mg TID oral 7 days
  Pressure first producing esophageal pain: 41.0 (12.5) mmHg
  Pressure first producing esophageal sensation: 28.4 (10.9) mmHg
  Volume first producing esophageal pain: 13.9 (5.8) mL
  Volume first producing esophageal sensation: 5.2 (3.6) mL
  Pressure first producing esophageal pain, Differences from Placebo: 1.3 (22.5) mmHg
  Pressure first producing esophageal sensation, Differences from Placebo: −2.5 (6.9) mmHg
  Volume first producing esophageal pain, Differences from Placebo: 0.8 (3.6) mL
  Volume first producing esophageal sensation, Differences from Placebo: −0.5 (1.8) mL
